# Values quoted from earlier work as cited in publication PMC2839367 (The Science of the total environment, 2010).
# How the values were obtained:
# [1] = tested on: S. cerevisiae BLYES estrogen sensitive strain; conditions: ref Sanseverino et al (2005)
# human estrogen receptor = conditions: ref Folmar et al (2002)
substance,measurement,setting,value
nonylphenol,EC50,[1],17 µM
same,EC50,human estrogen receptor,290 µM
